The subject of experiment [1] is Daudi (Burkitt lymphoma) cells. The experiment is described as follows: Cell viability (CellTiter-Glo), Daudi. Format: cell-based. Particulars: Homo sapiens, 72 h, cellular ATP, read-out: Daudi LC50. On the procedure: (§1) With selective SIRT2 inhibitors in hand, we proceeded to evaluate cytotoxicity of our compounds in Daudi, Raji (Burkitt lymphoma) and OCI-Ly8-LAM-53 (OCI, a representative of several Diffuse Large B-Cell Lymphoma lines; DLBCL) cell lines. Briefly, cells were plated in 96-well plates and treated with inhibitors at desired concentrations for 72 h. Cellular viability was determined by measuring the amount of cellular ATP using CellTiter-Glo assay kit (Promega) and normalized against DMSO-treated controls. […] Selected inhibitors were further evaluated in an expanded panel of cancer cell lines including breast cancer (MCF-7 and MDA-MB231), prostate cancer (PC-3) and glioblastoma multiforme (U-251). […] However, the trend in potency as a function of the structure is consistent with the results obtained against lymphoma cell lines. […] . Cell lines were obtained from ATCC (Manassas, VA, USA) and were grown under standard conditions as recommended. For viability assays, 3000 cells per well were dispensed into 96-well plates and treated with test compounds (final DMSO concentration 0.25%). Cells were incubated with test compounds (or DMSO controls) for 72 h or 5 days as noted at 37 °C in 5% CO2 and viability was determined using the CellTiter-Glo Assay (Promega Corp.) according to manufacturer’s instructions.

The test system of experiment [2] is Raji (Burkitt lymphoma) cells. The experiment is described as follows: Cell viability (CellTiter-Glo), Raji. Format: cell-based. As to conditions: Homo sapiens, 72 h, cellular ATP, read-out: Raji LC50. On the procedure:
as §1
(ATP-based viability assays read luminescence as a measure of living cells.)

The subject of experiment [3] is OCI-Ly8-LAM-53 (OCI, DLBCL) cells. In words: Cell viability (CellTiter-Glo), OCI. The class given is cell-based. Particulars: 72 h, cellular ATP; read-out: OCI LC50. Here is the method: as §1
The target of experiment [4] is T1, SIRT1 (Homo sapiens, UniProt Q96EB6).
T1 sequence (Q96EB6 1-747): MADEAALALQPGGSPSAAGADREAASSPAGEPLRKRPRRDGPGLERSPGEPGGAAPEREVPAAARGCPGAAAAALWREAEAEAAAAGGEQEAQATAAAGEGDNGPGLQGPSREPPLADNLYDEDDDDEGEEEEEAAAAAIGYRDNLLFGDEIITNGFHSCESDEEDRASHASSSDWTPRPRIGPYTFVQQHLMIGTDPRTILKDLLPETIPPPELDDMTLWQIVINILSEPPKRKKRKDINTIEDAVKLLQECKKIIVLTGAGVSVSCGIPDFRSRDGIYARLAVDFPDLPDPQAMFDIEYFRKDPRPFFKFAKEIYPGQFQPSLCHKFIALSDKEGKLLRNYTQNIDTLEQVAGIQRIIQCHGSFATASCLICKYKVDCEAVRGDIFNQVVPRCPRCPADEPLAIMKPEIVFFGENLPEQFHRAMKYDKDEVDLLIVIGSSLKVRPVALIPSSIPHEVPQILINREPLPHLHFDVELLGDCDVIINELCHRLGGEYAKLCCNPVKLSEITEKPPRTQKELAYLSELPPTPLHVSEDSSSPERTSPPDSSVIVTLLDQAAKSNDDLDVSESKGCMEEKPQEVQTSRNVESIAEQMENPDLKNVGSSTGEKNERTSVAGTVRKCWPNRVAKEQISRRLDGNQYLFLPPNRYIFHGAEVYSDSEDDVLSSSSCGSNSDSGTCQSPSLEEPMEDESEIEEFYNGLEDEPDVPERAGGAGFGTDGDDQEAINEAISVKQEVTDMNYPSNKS
The experiment is described as follows: SIRT-Glo enzyme inhibition assay, SIRT1. As to conditions: for inhibition at 50 µM: read-out: SIRT1 percentage inhibition at 50 µM compound, 50 µM compound.
Procedure: (§2) SIRT1, SIRT2, and SIRT3 were purchased from Cayman Chemical. Enzyme inhibition assays were performed in 96-well black plates using the SIRT-Glo Assay (Promega Corp.) according to the manufacturer’s instructions. Compounds were dissolved in 100% DMSO and to make 5- or 10-mM stock solutions. For initial enzyme inhibition tests, 50 µM of inhibitory concentration was used. […] IC50 values were determined in triplicate and reported values are averages of two independent experiments.

The target in experiment [5] is T2, SIRT2 (Homo sapiens, UniProt Q8IXJ6).
T2 sequence (Q8IXJ6 1-389): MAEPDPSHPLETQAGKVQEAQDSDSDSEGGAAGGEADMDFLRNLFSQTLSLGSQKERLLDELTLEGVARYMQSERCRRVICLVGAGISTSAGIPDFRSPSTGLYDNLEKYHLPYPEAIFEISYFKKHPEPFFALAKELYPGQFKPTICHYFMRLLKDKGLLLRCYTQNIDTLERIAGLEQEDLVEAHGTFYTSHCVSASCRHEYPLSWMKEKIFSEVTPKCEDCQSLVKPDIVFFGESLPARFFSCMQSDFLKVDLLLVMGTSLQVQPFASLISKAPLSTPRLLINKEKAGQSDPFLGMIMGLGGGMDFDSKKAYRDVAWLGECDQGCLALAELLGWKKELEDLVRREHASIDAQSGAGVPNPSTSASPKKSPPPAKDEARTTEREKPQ
The experiment is described as follows: SIRT-Glo enzyme inhibition assay, SIRT2. Particulars: for IC50: SIRT2 IC50; for inhibition at 50 µM: read-out: SIRT2 percentage inhibition at 50 µM compound, 50 µM compound.
Procedure: as §2

Experiment [6] deals with T3, SIRT3 (Homo sapiens, UniProt Q9NTG7).
T3 sequence (Q9NTG7 1-399): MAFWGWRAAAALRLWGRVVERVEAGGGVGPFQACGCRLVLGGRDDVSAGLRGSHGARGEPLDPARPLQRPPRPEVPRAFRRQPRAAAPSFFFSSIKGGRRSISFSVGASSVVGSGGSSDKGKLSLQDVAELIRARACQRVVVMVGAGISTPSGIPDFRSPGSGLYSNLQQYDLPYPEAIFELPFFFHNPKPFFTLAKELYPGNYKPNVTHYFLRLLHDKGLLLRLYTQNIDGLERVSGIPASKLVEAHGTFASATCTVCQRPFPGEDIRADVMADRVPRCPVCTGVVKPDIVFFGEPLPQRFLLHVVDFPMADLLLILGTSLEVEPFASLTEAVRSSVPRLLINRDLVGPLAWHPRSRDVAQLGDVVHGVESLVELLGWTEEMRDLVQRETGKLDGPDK
In words: SIRT-Glo enzyme inhibition assay, SIRT3. Particulars: for inhibition at 50 µM: read-out: SIRT3 percentage inhibition at 50 µM compound, 50 µM compound.
Procedure: as §2

The test system of experiment [7] is OCI DLBCL cells. The experiment is described as follows: Annexin V staining assay. Particulars: 5 µM.
Procedure: OCI DLBCL cells were treated with 56 for 24 h. Cells were lysed and analyzed by western blot assay for cleaved poly-ADP-ribose polymerase (PARP), a well-accepted apoptosis marker [42] (Abcam, Cambridge, UK).

From paper PMC7036909, “Discovery of Selective SIRT2 Inhibitors as Therapeutic Agents in B-Cell Lymphoma and Other Malignancies” (Molecules, 2020) come the findings set out here.

Molecules are shown by their SMILES. Where “and” joins values, the source holds several entries; their conditions need not be identical. Identical values can stand only once.

As usually defined, the inhibition is the share of the control response that was lost under treatment. The IC50 is the concentration that inhibits the measured activity by half. Turning to `NC(=O)C(Cc1c(O)ccc2cc(Br)ccc12)C(=O)c1ccc(Cl)cc1` (stereo not drawn) [Compound 19, 2-[(6-Bromo-2-hydroxynaphthalen-1-yl)methyl]-3-(4-chlorophenyl)-3-oxopropanamide], the CC50 in experiment [1] stood at 5 µM; in experiment [2], 7.3 µM; in experiment [3] it was 8.2 µM. Moreover, the inhibition at 50 µM came to 0% in experiment [4], 95% in experiment [5] and 30% in experiment [6]. In addition, the IC50 in experiment [5] is 2.79 µM and 2.8 µM.

In the case of `CNC(=O)C(Cc1c(O)ccc2cc(Br)ccc12)C(=O)c1ccc(C(F)(F)F)cc1` (stereo not drawn) [Compound 33, 2-[(6-Bromo-2-hydroxynaphthalen-1-yl)methyl]-N-methyl-3-oxo-3-[4-(trifluoromethyl)phenyl]propenamide], the CC50 in experiment [1] worked out at 14.5 µM; in experiment [2], 18.5 µM; in experiment [3], 16.4 µM. The compound also gave an IC50 in experiment [5] of 0.59 µM. The results for the inhibition at 50 µM in experiment [5] and in experiment [6] were 97% and 6%, respectively.

On to `O=C(NCCCO)C(Cc1c(O)ccc2cc(Br)ccc12)C(=O)c1cccc(Br)c1` (stereo not drawn) [Compound 37, 2-[(6-Bromo-2-hydroxynaphthalen-1-yl)methyl]-3-(3-bromophenyl)-N-(3-hydroxypropyl)-3-oxopropanamide], for which the figures for the inhibition at 50 µM in experiment [4], in experiment [5] and in experiment [6] were 28%, 86% and 46%, respectively. The compound also registered an IC50 in experiment [5] of 7.62 µM.

Regarding `NC(=O)CCNC(=O)C(Cc1c(O)ccc2cc(Br)ccc12)C(=O)c1cccc(Br)c1` (stereo not drawn) [Compound 43, 2-[(6-Bromo-2-hydroxynaphthalen-1-yl)methyl]-3-(3-bromophenyl)-N-(2-carbamoylethyl)-3-oxopropanamide], the CC50 was 15.8 µM in experiment [1] and 19.4 µM in experiment [2]. The results for the inhibition at 50 µM in experiment [4], in experiment [5] and in experiment [6] were 0%, 89% and 20%, respectively. In addition, the IC50 in experiment [5] stood at 0.96 µM.

Take `O=C(NCCO)C(Cc1c(O)ccc2cc(Br)ccc12)C(=O)c1ccc(Cl)cc1` (stereo not drawn) [Compound 47, 2-[(6-Bromo-2-hydroxynaphthalen-1-yl)methyl]-3-(4-chlorophenyl)-N-(2-hydroxyethyl)-3-oxopropanamide]: the CC50 came out at 20.2 µM in experiment [2] and 9.7 µM in experiment [3]. For the same compound, the inhibition at 50 µM turned out to be 0% in experiment [4], 98% in experiment [5] and 5% in experiment [6]. Further, in experiment [5], the IC50 was found to be 0.96 µM.

As to `NC(=O)CCNC(=O)C(Cc1c(O)ccc2cc(Br)ccc12)C(=O)c1ccc(Cl)cc1` (stereo not drawn) [Compound 50, 2-[(6-Bromo-2-hydroxynaphthalen-1-yl)methyl]-N-(2-carbamoylethyl)-3-(4-chlorophenyl)-3-oxopropanamide], the CC50 is 19.9 µM in experiment [2] and 11.7 µM in experiment [3]. For the same compound, the results for the inhibition at 50 µM in experiment [4], in experiment [5] and in experiment [6] were 4%, 99% and 17%, respectively. Further, the IC50 in experiment [5] was 0.65 µM.

Take `NC(=O)CCNC(=O)C(Cc1c(O)ccc2cc(Br)ccc12)C(=O)c1cccc(C(F)(F)F)c1` (stereo not drawn) [Compound 53]: the “selectivity for SIRT2 over SIRT1” value in experiment [4] (SIRT2 versus SIRT1) is on record as > 400 fold. The figures for the inhibition at 50 µM in experiment [4], in experiment [5] and in experiment [6] were 8%, 91% and 16%, respectively. The compound further showed an IC50 in experiment [5] of 1.57 µM. Further, the “selectivity for SIRT2 over SIRT3” value in experiment [6] (SIRT2 versus SIRT3) is recorded as > 800 fold.

For `COc1cc([C@@H]2c3cc4c(cc3[C@@H](O[C@@H]3O[C@@H]5CO[C@@H](C)O[C@H]5[C@H](O)[C@H]3O)[C@H]3COC(=O)[C@H]23)OCO4)cc(OC)c1O` [Etoposide, etoposide, reference compound], in experiment [7], the “Q1 (necrotic cell death) cell population” value was found to be 5.1%, the “Q2 (apoptotic cells) cell population” value is recorded as 59.8%, the Q3 cell population was 26.8% and the Q4 cell population amounted to 8.3%.
